Non-standard residues stand in square brackets, D forms with d. Residues, ends and D or L forms follow the SMILES beside them. d(hArg(Et2)) = CCN=C(NCC)NCCCC[C@@H](N)C(=O)O; hArg(Et2) = CCN=C(NCC)NCCCC[C@H](N)C(=O)O; dPhe(4-Cl) = N[C@H](Cc1ccc(Cl)cc1)C(=O)O; d2Nal = N[C@H](Cc1ccc2ccccc2c1)C(=O)O; dCit = NC(=O)NCCC[C@@H](N)C(=O)O; d3Pal = N[C@H](Cc1cccnc1)C(=O)O
Columns and labels:
Assay type in all cases: in vivo, human
IVF-patients = assay: implantation and pregnancy rates after IVF and embryo transfer following COH
Excerpt: (§1) Although this treatment is suitable for all types of IVF patients (e.g. within the age range 18 to 45 years, with or without displaying polycystic ovarian syndrome and with or without a regular cycle), the following selection criteria are set forth in the investigation: healthy female partners of infertile couples; age at the time of screening between 20 and 39 years; a regular menstrual cycle, and willing to give a written informed consent. However, no special precautions concerning body weight or body mass index are taken.
Prior to the first administration of recombinant FSH a blood sample is taken for hormone analysis (estradiol and LH) and a standard urinary hCG assay is performed to exclude pregnancy. Recombinant FSH treatment is started at day 2 or 3 of menses by a daily subcutaneous injection until the day of hCG administration. During the first 5 days of recombinant FSH treatment the daily dose is fixed to 150 IU. Starting at day 6, blood samples for hormone analysis are taken once every two days prior to drug administration and ultrasonographic monitoring of follicle growth is performed to adjust, if necessary, the daily injectable doses of recombinant FSH.
(§2) A subcutaneous injection with urinary hCG (10,000 IU) is administered, when at least three follicles exceed a diameter of 17 mm as measured by ultrasound scan and subsequently oocyte retrieval is performed typically 30-36 hours later.
Oocytes are retrieved from the human females that have undergone COH as set forth in example 1. The oocytes are subsequently fertilized in vitro and two days later no more than two embryos are transferred to the uterus of the patient. […] Lower implantation and pregnancy rates are obtained in IVF-patients, in whom premature LH surges are prevented by a daily dose of 0.25 mg cetrorelix.

[1] = test system: women undergoing COH and subsequent IVF and ET; assay: safety and tolerability in the clinical trial of COH with subsequent IVF and ET; details: daily subcutaneous 2.0 mg cetrorelix without recLH
Excerpt: as §1
(§3) Prior to the first administration of recombinant FSH a blood sample is taken for hormone analysis (estradiol and LH) and a standard urinary hCG assay is performed to exclude pregnancy. Recombinant FSH treatment is started at day 2 or 3 of menses by a daily subcutaneous injection until the day of hCG administration. During the first 5 days of recombinant FSH treatment the daily dose is fixed to 150 IU. […]
as §2

[2] = test system: premature endogenous LH-surge; assay: open-label controlled clinical trial: premature endogenous LH-surge prevention in COH; details: daily subcutaneous 2.0 mg cetrorelix without recLH
Excerpt: as §1, §3, §2

[3] = test system: premature endogenous LH-surge; assay: Examples 1 and 2 repeated using ganirelix instead of cetrorelix; details: 2.0 mg ganirelix instead of 2.0 mg cetrorelix
Excerpt: as §1, §3
A subcutaneous injection with urinary hCG (10,000 IU) is administered, when at least three follicles exceed a diameter of 17 mm as measured by ultrasound scan and subsequently oocyte retrieval is performed typically 30-36 hours later. […]

[4] = daily 2.0 mg cetrorelix without co-administered recLH

Compound	implantation rates (rank among three treatment groups) (IVF-patients; daily 0.25 mg cetrorelix)	pregnancy rates (rank among three treatment groups) (IVF-patients; daily 0.25 mg cetrorelix)	implantation rates (rank among three treatment groups) (IVF-patients; [4])	pregnancy rates (rank among three treatment groups) (IVF-patients; [4])	adverse effects [1]	tolerability [1]	efficacy in preventing a premature LH-rise ([2]; compared with 0.25 mg)	effectiveness in preventing a premature LH-rise in patients with bodyweight of more than 75 kg ([2]; IVF patients undergoing COH, bodyweight more than 75 kg)	results (LH-rise prevention, tolerability, implantation and pregnancy rates) compared with examples 1 and 2 [3]
CC(=O)N[C@H](Cc1ccc2ccccc2c1)C(=O)N[C@H](Cc1ccc(Cl)cc1)C(=O)N[C@H](Cc1cccnc1)C(=O)N[C@@H](CO)C(=O)N[C@@H](Cc1ccc(O)cc1)C(=O)N[C@H](CCCNC(N)=O)C(=O)N[C@@H](CC(C)C)C(=O)N[C@@H](CCCNC(=N)N)C(=O)N1CCC[C@H]1C(=O)N[C@H](C)C(N)=O [cetrorelix] (Ac-[d2Nal][dPhe(4-Cl)][d3Pal]SY[dCit]LRP[dA]-NH2)	Lower	Lower	lowest	lowest	no apparent adverse effects	well-tolerated	more efficacious	especially apparent	
CCN=C(NCC)NCCCC[C@H](NC(=O)[C@H](CC(C)C)NC(=O)[C@@H](CCCCNC(=NCC)NCC)NC(=O)[C@H](Cc1ccc(O)cc1)NC(=O)[C@H](CO)NC(=O)[C@@H](Cc1cccnc1)NC(=O)[C@@H](Cc1ccc(Cl)cc1)NC(=O)[C@@H](Cc1ccc2ccccc2c1)NC(C)=O)C(=O)N1CCC[C@H]1C(=O)N[C@H](C)C(N)=O [ganirelix] (Ac-[d2Nal][dPhe(4-Cl)][d3Pal]SY[d(hArg(Et2))]L[hArg(Et2)]P[dA]-NH2)									very similar
